This note sets out measurements from PubChem BioAssay (NCI).

“And” between values parts separate entries of the source, which are not always exact repeats. Identical values can stand only once.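 Assay format: 96-well plates, 48-hour exposure. GI50: concentration for 50% inhibition of growth. Definition used: TGI = concentration required for complete inhibition of growth.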

Some test systems named below: MDA-N; M19-MEL melanoma; LXFL 529 NSCLC; RXF-631 renal; HOP-18 NSCLC; KM20L2 colon; DMS 273 small cell lung; DLD-1 colon; XF 498 CNS; P388/ADR leukemia; P388 leukemia; SN12K1 renal.
Holding throughout (test): NCI tumour cell line growth inhibition, 48 h

Regarding `CC(=O)OC1=CC2=CC[C@H]3[C@@H]4CCC(=O)[C@@]4(C)CC(=O)[C@]3(S)[C@@]2(C)CC1`, the TGI with MDA-N is > 100 µM.
Regarding `Nc1c(O)cc(N=C2C(=O)C=CC=C2C(=O)O)c(O)c1C(=O)O`, the TGI in the test with M19-MEL melanoma was 37.9 µM; in the test on LXFL 529 NSCLC it was > 100 µM; in the test on RXF-631 renal it was > 100 µM; in the test with HOP-18 NSCLC, > 100 µM; with KM20L2 colon it was > 100 µM; in the test with DMS 273 small cell lung, > 100 µM. Besides, the TGI with DLD-1 colon is > 31.6 µM; in the test on XF 498 CNS it was > 100 µM.
Turning to `Cc1cc(-c2ccccc2)nc(Nc2nc3ccccc3o2)n1`, the TGI with M19-MEL melanoma, in the test on LXFL 529 NSCLC, with KM20L2 colon, in the test with DLD-1 colon and in the test with XF 498 CNS was > 100 µM in each case.
For `COC(=O)C1=C(c2ccc(OC)c(OC)c2)OC(c2cc(OC)c(OC)c(OC)c2)C1` (stereo not drawn), the TGI in the test with M19-MEL melanoma, with LXFL 529 NSCLC, in the test on RXF-631 renal, in the test on HOP-18 NSCLC, with KM20L2 colon and with DMS 273 small cell lung was > 100 µM each time. For the same compound, the TGI with DLD-1 colon and with XF 498 CNS was > 100 µM each time.
`CN=C(NC(=S)N(C)C)N(C)C`: the TGI with M19-MEL melanoma, with LXFL 529 NSCLC, with RXF-631 renal, with HOP-18 NSCLC, in the test with KM20L2 colon and with DMS 273 small cell lung was > 100 µM throughout. The TGI in the test on DLD-1 colon and in the test with XF 498 CNS was > 100 µM throughout.
For the compound `O=[N+]([O-])c1ccc(C2CC(c3ccccc3Cl)=Nc3ccccc3S2=O)cc1` (stereo not drawn), the TGI in the test on MDA-N was found to be 21.8 µM; with M19-MEL melanoma it was 6.89 µM; with LXFL 529 NSCLC, 3.54 µM; with RXF-631 renal, 21.5 µM; with HOP-18 NSCLC, 39.5 µM; in the test with KM20L2 colon it was 7.04 µM. Besides, the TGI was 8.87 µM in the test with DMS 273 small cell lung, 4.1 µM in the test on DLD-1 colon and 18.4 µM with XF 498 CNS.
Consider `Cc1cccc(C(C)C)c1N1C(=O)C(=O)C(c2nc3ccccc3o2)C(=O)C1=O`, for which the TGI with M19-MEL melanoma, with LXFL 529 NSCLC, in the test on RXF-631 renal, in the test with HOP-18 NSCLC, in the test with KM20L2 colon and with DMS 273 small cell lung was > 100 µM each time. Besides, the results for the TGI in the test with DLD-1 colon and in the test with XF 498 CNS were > 100 µM and 69.1 µM, respectively.
On to `N#CC1CCCCOCCOCCOCCOCCOCCCCCC1=O` (stereo not drawn), for which the TGI with M19-MEL melanoma, in the test with LXFL 529 NSCLC, in the test on RXF-631 renal, in the test with HOP-18 NSCLC, in the test on KM20L2 colon and in the test on DMS 273 small cell lung was > 100 µM in each case. Moreover, the TGI in the test on DLD-1 colon was > 100 µM.
Regarding `O=C(O)C1CC2(C1)CC(C(=O)O)C2` (stereo not drawn), the TGI in the test with MDA-N is > 100 µM.
As for `CCCCC(C)C(OC(=O)CC(CC(=O)O)C(=O)O)C(CC(C)CC(O)CCCCC(O)CC(O)C(C)N)OC(=O)CC(CC(=O)O)C(=O)O` (stereo not drawn), the TGI in the test with M19-MEL melanoma, in the test on LXFL 529 NSCLC, in the test with RXF-631 renal, with HOP-18 NSCLC, in the test with KM20L2 colon and in the test with DLD-1 colon was > 100 µM each time. In the test on XF 498 CNS, the TGI was > 100 µM.
Take `C#CC[N+](C)(CC#C)CC#C`: the TGI with M19-MEL melanoma, in the test with LXFL 529 NSCLC, with RXF-631 renal, in the test on KM20L2 colon, with DMS 273 small cell lung and in the test on DLD-1 colon was > 100 µM throughout. The TGI with XF 498 CNS was > 100 µM.
For the compound `COc1cc(NS(C)(=O)=O)ccc1Nc1c2ccccc2nc2ccccc12`, the GI50 is 4 µM with MDA-N; 1.54 µM and 5.95 µM with M19-MEL melanoma; 5.37 µM and 5.42 µM in the test on LXFL 529 NSCLC; 0.388 µM and 0.431 µM with RXF-631 renal; 0.878 µM with HOP-18 NSCLC; 2.18 µM and 3.41 µM in the test on KM20L2 colon. Further, the GI50 in the test on DMS 273 small cell lung was 0.0535 µM and 0.128 µM; with DLD-1 colon, 3.58 µM and 15.3 µM. The TGI with MDA-N was 7.41 µM and 16.6 µM and 11.5 µM; with M19-MEL melanoma, 17.6 µM and 30.8 µM and 8.44 µM; in the test on LXFL 529 NSCLC, 17.9 µM and 22.7 µM and 8.92 µM; in the test on P388/ADR leukemia, 5.51 µM; with P388 leukemia, 0.391 µM; in the test with RXF-631 renal, 4.3 µM and 2.93 µM and 5.34 µM. For the same compound, the TGI in the test with HOP-18 NSCLC was 5.23 µM and 3.51 µM; with KM20L2 colon, 12.1 µM and 15.3 µM and 5.78 µM; in the test with DMS 273 small cell lung it was 2.72 µM and 12 µM and 2.02 µM; in the test on DLD-1 colon it was 16.2 µM and 35.1 µM and 7.54 µM; with SN12K1 renal it was 4.04 µM.
Consider `O=C(CC1(O)C(=O)Nc2ccc(Br)cc21)c1ccc(Cl)cc1Cl` (stereo not drawn), for which the TGI with M19-MEL melanoma was 29.1 µM; in the test with LXFL 529 NSCLC, > 100 µM; with RXF-631 renal it was > 100 µM; in the test on KM20L2 colon it was > 100 µM; in the test on DLD-1 colon, > 100 µM.
Turning to `O=[N+]([O-])c1ccc(Cl)c(C2CC(c3cccc4ccccc34)=Nc3ccccc3S2)c1` (stereo not drawn), the TGI in the test with M19-MEL melanoma was > 66.1 µM; with LXFL 529 NSCLC, 88.9 µM; in the test on RXF-631 renal, > 100 µM; in the test with HOP-18 NSCLC, > 100 µM; in the test with KM20L2 colon it was > 100 µM; with DMS 273 small cell lung, > 100 µM. For the same compound, the TGI in the test with DLD-1 colon came to 28.1 µM.
In the test with MDA-N, `O=C(O)C1CCCCC1c1c2ccc(=O)c(O)c-2oc2c(O)c(O)ccc12` (stereo not drawn) returned a TGI of 44.9 µM.
Regarding `S=c1nc(COc2ccc(Cl)cc2Cl)[nH][nH]1`, the TGI in the test with M19-MEL melanoma, in the test on LXFL 529 NSCLC, in the test on KM20L2 colon, with DMS 273 small cell lung, with DLD-1 colon and with XF 498 CNS was > 100 µM in each case.
`CS(=O)(=O)NNS(=O)(=O)c1ccccc1`: the TGI with M19-MEL melanoma, with LXFL 529 NSCLC, in the test on KM20L2 colon, in the test with DMS 273 small cell lung, in the test on DLD-1 colon and in the test with XF 498 CNS was > 100 µM in each case.
For `Cc1nnc2c3nnc(C)n3c3ccccc3n12`, the TGI in the test on LXFL 529 NSCLC, in the test with KM20L2 colon, in the test on DMS 273 small cell lung, with DLD-1 colon and with XF 498 CNS was > 100 µM each time.
